Experimental data taken from patent US9284283B2, “Macrocyclic compounds for modulating IL-17” (ENSEMBLE THERAPEUTICS CORPORATION, priority 2012, dated 2016).
Where two headings read alike, the source gives them in different places.

Columns and labels:
[1] = target: T1, biotinylated human IL-17 (binding to IL17R/Fc) (Homo sapiens, UniProt Q16552); test: IL-17 competition ELISA II (captured IL17R/Fc, biotinylated IL-17)
T1 construct: purchased R&D Systems 317-ILB (IL-17, biotinylated); 177-IR (IL17R/Fc)
T1 sequence (Q16552 20-155 limits assumed): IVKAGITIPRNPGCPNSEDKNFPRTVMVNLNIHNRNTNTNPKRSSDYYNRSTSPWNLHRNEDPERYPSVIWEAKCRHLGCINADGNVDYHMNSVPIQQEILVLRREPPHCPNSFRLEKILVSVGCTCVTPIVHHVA
How it was run: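 Anti-human IgG-coated plates captured IL17R/Fc (10 nM), then compound (5-fold dilutions from 1 μM) and biotinylated human IL-17 (20 nM stock) were added for 30 min at room temperature in PBST. Bound IL-17 detected by streptavidin-HRP/TMB at 450 nm. IC50 from 4-parameter logistic fit between no-competitor and blank controls.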

[2] = system: IL-17A induced secretion of IL-6 in primary human RASF cells; test: Inhibition of IL17A induced secretion of IL6 in human rheumatoid arthritis synovial fibroblast (RASF) cells; type: cell-based
Procedure: This assay was used to determine the extent of inhibition of IL-17A induced secretion of IL-6 in primary human rheumatoid synovial fibroblast (RASF) cells by compounds of the invention. IL-17A is known to stimulate IL-6 production in RASF cells.
Low passage (passage 2-8) Primary human RASF cells (Asterand) were maintained in maintenance medium. Cells were detached from flasks by tryptic digestion and the cell density of the suspension determined. To each well of a 96 well culture plate was added 100 μL of seeding medium containing 50,000 cells/mL and the plate incubated overnight in a humidified 37° C., 5% CO2 incubator. The medium was replaced with fresh assay medium and cells were incubated for additional 5 hours in a humidified 37° C., 5% CO2 incubator prior to stimulation with recombinant human IL-17A (“rhIL-17A”). Prior to addition to cells, rhIL-17A (30 ng/mL) in assay medium was incubated with either DMSO alone, compounds, or anti-IL17 receptor antibody (3 μg/mL) for 1 hour at 37° C. The final concentration of DMSO in all samples was 0.25%. The final concentration of compounds varied from 0.03 μM to 25 μM.
Immediately before stimulation, cells were washed once with fresh assay medium. Then, 100 μL of the test samples was added in triplicate wells and the plates incubated for 20 hours in a humidified 37° C., 5% CO2 incubator. The assay medium from each well was collected and the IL-6 concentration in cell culture supernatants was determined by ELISA either immediately or after storage at −20° C.
A water-soluble tetrazolium salt (WST1) viability assay was immediately performed on the cells after the conditioned medium was collected using a WST1 reagent purchased from Roche. The concentration of IL-6 obtained from ELISA was normalized by the WST1 data.

Row | Structure (SMILES) | IC50 [1] [µM] | IC50 ([2]; Homo sapiens, Fibroblast) [µM] | IC50 [2] [µM]
1 | C[C@H]1NC(=O)[C@@H](Cc2ccc(NC(=O)[C@H](Cc3ccccc3Cl)NC(=O)[C@H](O)c3ccccc3)cc2)NC(=O)CC2(CCCC2)CC(=O)NCCCCCNC1=O [Compound 551] | < 0.1 | 1 to 10 | 
2 | C[C@H]1NC(=O)[C@@H](Cc2ccc(NC(=O)[C@H](Cc3ccccc3Cl)NC(=O)Cc3ccc(N(C)C)cc3)cc2)NC(=O)CC2(CCCC2)CC(=O)N(C)CCOCCN(C)C1=O [Compound 584] | < 0.1 | 1 to 10 | 
3 | C[C@H]1NC(=O)[C@@H](Cc2ccc(NC(=O)[C@H](Cc3ccccc3Cl)NC(=O)Cc3ccc(F)cc3)cc2)NC(=O)CC2(CCCC2)CC(=O)N(C)CCCCCNC1=O [Compound 469] | < 0.1 | 1 to 10 | 
4 | C[C@H]1NC(=O)[C@@H](Cc2ccc(NC(=O)[C@H](Cc3ccccc3Cl)NC(=O)C(F)(F)c3ccccc3)cc2)NC(=O)CC2(CCC2)CC(=O)NCCCCCNC1=O [Compound 536] | < 0.1 | 0.1 to 1 | 
5 | O=C1CC2(CCCC2)CC(=O)N[C@H](Cc2ccc(NC(=O)[C@H](Cc3ccccc3Cl)NC(=O)OCc3ccccc3)cc2)C(=O)NCCOCCOCCN1 [Compound 484] | < 0.1 | 0.1 to 1 | 
6 | CC(C)C[C@H]1NC(=O)[C@@H](Cc2ccc(NC(=O)[C@H](Cc3ccccc3Cl)NC(=O)Cc3ccc(CO)cc3)cc2)NC(=O)CC2(CCCC2)CC(=O)N[C@H](C(=O)O)CCCCNC1=O [Compound 660] | < 0.1 | < 0.1 | 
7 | C[C@H]1NC(=O)[C@@H](Cc2ccc(NC(=O)[C@H](Cc3ccccc3Cl)NC(=O)Cc3ccc(F)cc3)cc2)N(C)C(=O)CC2(CCCC2)CC(=O)N(C)CCCCCNC1=O [Compound 480] | < 0.1 | 1 to 10 | 
8 | CN1CCNC(=O)CC2(CCCC2)CC(=O)N[C@H](Cc2ccc(NC(=O)[C@H](Cc3ccccc3Cl)NC(=O)Cc3ccccc3)cc2)C(=O)NCC1 [Compound 399] | < 0.1 | 1 to 10 | 
9 | Cc1ccc(CC(=O)N[C@@H](Cc2ccccc2Cl)C(=O)Nc2ccc(C[C@H]3NC(=O)CC4(CCCC4)CC(=O)NCCOCCOCCNC3=O)cc2)cc1 [Compound 494] | < 0.1 | 0.1 to 1 | 
10 | CC1NC(=O)C(Cc2ccc(NC(=O)C(Cc3ccccc3Cl)NC(=O)Cc3ccc(F)cc3)cc2)NC(=O)C2(CCCC2)CCC(=O)NCCCCCNC1=O (stereo not shown) [Compound 561] | < 0.1 |  | 1 to 10
11 | O=C1CC2(CCCC2)CC(=O)N[C@H](Cc2ccc(NC(=O)[C@H](Cc3ccccc3Cl)NC(=O)c3cccnc3)cc2)C(=O)NCCCCCCCCN1 [Compound 442] | < 0.1 | 1 to 10 | 
12 | O=C1CNC(=O)[C@@H](Cc2ccc(NC(=O)[C@H](Cc3ccc(F)cc3Cl)NC(=O)Cc3ccc(CO)cc3)cc2)NC(=O)CC2(CCCC2)CC(=O)NCCCCCN1 [Compound 408] | < 0.1 | 0.1 to 1 | 
13 | C[C@H]1NC(=O)[C@@H](Cc2ccc(NC(=O)[C@H](Cc3ccccc3Cl)NC(=O)C3(c4ccc(F)cc4)CC3)cc2)NC(=O)CC2(CCCC2)CC(=O)N[C@H](C(=O)O)CCCCNC1=O [Compound 513] | < 0.1 | 0.1 to 1 | 
14 | O=C1CNC(=O)[C@@H](Cc2ccc(NC(=O)[C@H](Cc3ccc(F)cc3Cl)NC(=O)Cc3ccccc3)cc2)NC(=O)CC2(CCCC2)CC(=O)NCCCCCN1 [Compound 386] | < 0.1 | 1 to 10 | 
15 | CN1CCOCCOCCNC(=O)[C@@H](Cc2ccc(NC(=O)[C@H](Cc3ccccc3Cl)NC(=O)Cc3ccc(N(C)C)cc3)cc2)NC(=O)CC2(CCCC2)CC1=O [Compound 582] | < 0.1 | 1 to 10 | 
16 | O=C1CNC(=O)[C@@H](Cc2ccc(NC(=O)[C@H](Cc3ccccc3Cl)NC(=O)Cc3ccc(NC(=O)CNCc4ccccc4)cc3)cc2)NC(=O)CC2(CCCC2)CC(=O)NCCCCCN1 [Compound 405] | < 0.1 | 0.1 to 1 | 
17 | O=C1CC2(CCCC2)CC(=O)N[C@H](Cc2ccc(NC(=O)[C@H](Cc3ccccc3Cl)NC(=O)Cc3ccc(CO)cc3)cc2)C(=O)N[C@H](Cc2cccnc2)C(=O)NCCCC[C@@H](C(=O)O)N1 [Compound 657] | < 0.1 | < 0.1 | 
18 | CN(C)CCOc1ccc(CC(=O)N[C@H](C(=O)Nc2ccc(C[C@H]3NC(=O)CC4(CCCC4)CC(=O)NCCCCCNC(=O)[C@@H](Cc4ccccc4)NC3=O)cc2)C2CCCCC2)cc1 [Compound 437] | 0.1 to 1 | 1 to 10 | 

Row | Structure (SMILES) | IC50 [1] [µM] | IC50 ([2]; Homo sapiens, Fibroblast) [µM] | IC50 [2] [µM]
19 | C[C@H]1NC(=O)[C@@H](Cc2ccc(NC(=O)[C@H](Cc3ccccc3Cl)NC(=O)C(=O)c3ccccc3)cc2)NC(=O)CC2(CCCC2)CC(=O)NCCCCCNC1=O [Compound 549] | < 0.1 | < 0.1 | 
20 | C[C@H]1NC(=O)[C@@H](Cc2ccc(NC(=O)[C@H](Cc3ccccc3Cl)NC(=O)Cc3ccc(F)cc3)cc2)NC(=O)CC2(CCCC2)CC(=O)NCCCCCN(C)C1=O [Compound 470] | < 0.1 | 0.1 to 1 | 
21 | C[C@H]1NC(=O)[C@@H](Cc2ccc(NC(=O)[C@H](Cc3ccccc3Cl)NC(=O)Cc3ccc(F)cc3)cc2)NC(=O)CC2(CCCC2)CC(=O)N(C)CCN(C)CCN(C)C1=O [Compound 539] | < 0.1 | 1 to 10 | 
22 | C[C@H]1NC(=O)[C@@H](Cc2ccc(NC(=O)[C@H](Cc3ccccc3Cl)NC(=O)Cc3ccc(N(C)C)cc3)cc2)NC(=O)CC2(CCCC2)CC(=O)NCCCCCNC1=O [Compound 552] | < 0.1 | < 0.1 | 
23 | CN1CCCCCN(C)C(=O)[C@@H](Cc2ccncc2)NC(=O)[C@@H](Cc2ccc(NC(=O)[C@H](Cc3ccccc3Cl)NC(=O)C(F)(F)c3ccccc3)cc2)NC(=O)CC2(CCCC2)CC1=O [Compound 627] | < 0.1 | 0.1 to 1 | 
24 | O=C1CC2(CCCC2)CC(=O)N[C@H](Cc2ccc(NC(=O)[C@H](Cc3ccccc3Cl)NC(=O)Cc3cccc(O)c3)cc2)C(=O)NCCCCCCCCN1 [Compound 441] | < 0.1 | 0.1 to 1 | 
25 | C[C@H]1NC(=O)[C@@H](Cc2ccc(NC(=O)[C@H](Cc3ccccc3Cl)NC(=O)C(F)(F)c3ccc(F)cc3)cc2)NC(=O)CC2(CCCC2)CC(=O)NCCCCCNC1=O [Compound 560] | < 0.1 | < 0.1 | 
26 | CN1CCCCCNC(=O)[C@@H](CCC(=O)O)NC(=O)[C@@H](Cc2ccc(NC(=O)[C@H](Cc3ccccc3Cl)NC(=O)Cc3cccc(O)c3)cc2)NC(=O)CC2(CCCC2)CC1=O [Compound 473] | < 0.1 | 0.1 to 1 | 
27 | C[C@H]1NC(=O)[C@@H](Cc2ccc(NC(=O)[C@H](Cc3ccccc3Cl)NC(=O)Cc3ccc(F)cc3)cc2)NC(=O)CC2(CCC2)CC(=O)NCCCCCNC1=O [Compound 535] | < 0.1 | 1 to 10 | 
28 | O=C1CC2(CCCC2)CC(=O)N[C@H](Cc2ccc(NC(=O)[C@H](Cc3ccccc3Cl)NC(=O)Cc3ccc(F)cc3)cc2)C(=O)NCC#CCCCCN1 [Compound 497] | < 0.1 | 1 to 10 | 
29 | C[C@H]1NC(=O)[C@@H](Cc2ccc(NC(=O)[C@H](Cc3ccccc3Cl)NC(=O)Cc3ccc(N(C)C)cc3)cc2)NC(=O)CC2(CCCC2)CC(=O)N(C)CCN(C)CCN(C)C1=O [Compound 562] | < 0.1 | 1 to 10 | 
30 | C[C@H]1NC(=O)[C@@H](Cc2ccc(NC(=O)[C@H](Cc3ccccc3C(F)(F)F)NC(=O)C3(c4ccc(F)cc4)CC3)cc2)NC(=O)CC2(CCCC2)CC(=O)N(C)CCCCCNC1=O [Compound 507] | < 0.1 | 1 to 10 | 
31 | C[C@H]1NC(=O)[C@@H](Cc2ccc(NC(=O)[C@H](Cc3ccccc3Cl)NC(=O)C(F)(F)c3ccccc3)cc2)NC(=O)CC2(CCCC2)CC(=O)N(C)CCOCCN(C)C1=O [Compound 567] | < 0.1 | 0.1 to 1 | 
32 | O=C1CC2(CCCC2)CC(=O)N[C@H](Cc2ccc(NC(=O)[C@H](Cc3ccccc3Cl)NC(=O)Cc3ccc(CO)cc3)cc2)C(=O)N[C@H](Cc2cscn2)C(=O)NCCCC[C@@H](C(=O)O)N1 [Compound 658] | < 0.1 | < 0.1 | 
33 | C[C@H]1NC(=O)[C@@H](Cc2ccc(NC(=O)[C@H](Cc3ccccc3Cl)NC(=O)[C@@H](O)c3ccccc3)cc2)NC(=O)CC2(CCCC2)CC(=O)NCCCCCNC1=O [Compound 550] | < 0.1 | 1 to 10 | 
34 | CN1CCCCCN(C)C(=O)[C@@H](CCC(N)=O)NC(=O)[C@@H](Cc2ccc(NC(=O)[C@@H](NC(=O)Cc3cccc(O)c3)C3CCCCC3)cc2)NC(=O)CC2(CCCC2)CC1=O [Compound 646] | < 0.1 | 1 to 10 | 
35 | C[C@H]1NC(=O)[C@@H](Cc2ccc(NC(=O)[C@H](Cc3ccccc3Cl)NC(=O)C(F)(F)c3ccccc3)cc2)NC(=O)CC2(CCCC2)CC(=O)NCCCCCNC1=O [Compound 434] | < 0.1 | 0.1 to 1 | 
